Measured values taken from patent US11191850B2, “Molecular probes for detection and imaging of pancreatic cancer” (Portland State University, priority 2016, dated 2021).
Values joined by “and” are separate entries in the source; they are usually repeats but may differ in a detail not shown here. Identical values can stand only once.

How the values were obtained:
[1] = UV-Vis absorption and fluorescence spectroscopy; assay type: physicochemical; set-up: Brightness: unit not given here; details: for pH and solvent sensitivity of UV and fluorescence spectra: 10-15 μM, aqueous 10% DMSO with HCl, NaOH or pH 7.4 buffer, various solvents; for Extinction coefficient / λmax abs: 10% DMSO
Description: UV-Vis absorption and fluorescence spectroscopy. UV-Vis spectra were collected with a Cary 50 UV-Vis spectrophotometer at room temperature, using a 1-cm quartz cuvette. Fluorescence spectra were collected on a Cary Eclipse fluorescence spectrophotometer (Agilent Technologies). All absorbance spectra were reference corrected. Fluorescence spectra were corrected for the wavelength dependent response of the R928 photomultiplier tube using a manufacturer generated correction file. Quantum yields are reported as the average of multiple measurements using multiple references. Excitation emission matrices (EEMs) were collected over various spectral regions, using 5-nm step sizes for emission and 10-nm step sizes for excitation. The band pass for excitation and emission was 5 to 10 nm.
(§1) Probes 1-13 were screened for pH and solvent sensitivity. Solvent sensitivity or dependence is at least partially attributable to differences in the equilibria between tautomeric forms of the compounds in the various solvents evaluated. The fluorophore concentrations ranged from 10-15 μM. Aqueous solutions contained 10% DMSO and 12.5 mM HCl, 12.5 mM NaOH, or pH 7.4 phosphate buffer.

[2] = pKa of ionizable fluorophores (pH sensitivity screening); assay type: physicochemical; details: aqueous solutions with 10% DMSO; Table 1
Experimental: as §1

[3] = pH 7.4 buffer, excited at 480 nm
[4] = pH 7.4 buffer, methyl ether derivatives
[5] = pH 7.4 phosphate buffer, methyl ether derivatives
[6] = acidic solution pH 1.9, HCl, excited at 480 nm or 510 nm
[7] = conjugate base, basic solution pH 12.1, NaOH
[8] = conjugate base, pH 12.1, NaOH, excited at 630 nm
[9] = pH 7.4 buffer, excited at 630 nm
[10] = pH 7.4 buffer, seminaphthorhodamines
[11] = pH 7.4 phosphate buffer, seminaphthorhodamines
[12] = conjugate acid, acidic solution pH 1.9, HCl, 15 μM

In the case of `COC(=O)c1ccccc1-c1c2ccc(=[N+](C)C)cc-2oc2c1ccc1cccc(OC)c12.[Cl-]` [Compound 6, N-(1-methoxy-7-(2-(methoxycarbonyl)phenyl)-10H-benzo[c]xanthen-10-ylidene)-N-methylmethanaminium chloride], the “pH and solvent sensitivity of UV and fluorescence spectra” value (“pH and solvent sensitivity” below) [1] is reported as “insensitive to variations in pH or solvent”, the Quantum yield [1, 3] is reported as 9.32% and the λmax em [1, 3] is reported as 606 nm. It also gave a Brightness [1, 4] of 2094, a Stokes shift [1, 4] of 38 nm and an Extinction coefficient [1, 5] of 22470 M⁻¹ cm⁻¹. For the same compound, the λmax abs [1, 5] was 568 nm.
For `COC(=O)c1ccccc1-c1c2ccc(=N)cc-2oc2c1ccc1cccc(O)c12.Cl` [Compound 3, 1-hydroxy-7-(2-(methoxycarbonyl)phenyl)-10H-benzo[c]xanthen-10-iminium chloride], the “pH and solvent sensitivity” value [1] was “exhibit pH as well as solvent sensitivity”, the Brightness ([1]; acidic solution pH 1.9, HCl) was 226 and the Stokes shift ([1]; acidic solution pH 1.9, HCl) was 62 nm. It also gave an Extinction coefficient ([1]; acidic solution pH 1.9, HCl) of 19787 M⁻¹ cm⁻¹, a λmax abs ([1]; acidic solution pH 1.9, HCl) of 542 nm and a Quantum yield [1, 6] of 1.14%. It also gave a λmax em [1, 6] of 604 nm, an Extinction coefficient [1, 7] of 15589 M⁻¹ cm⁻¹ and a λmax abs [1, 7] of 621 nm. For the same compound, the Brightness ([1]; conjugate base, pH 12.1, NaOH) was 17, the Stokes shift ([1]; conjugate base, pH 12.1, NaOH) was 149 nm and the Quantum yield [1, 8] was 0.11%. For the same compound, the λmax em [1, 8] was 770 nm and the pKa [2] was 6.67 +/− 0.11.
For `COC(=O)c1ccccc1C1=c2cc3c4c(c2Oc2c1ccc1cccc(O)c21)CCC[N+]=4CCC3` [Compound 11, 15-hydroxy-9-(2-(methoxycarbonyl)phenyl)-1,2,3,5,6,7-hexahydrobenzo[7,8]chromeno[2,3-f]pyrido[3,2,1-ij]quinolin-4-ium chloride], the “pH and solvent sensitivity” value [1] was “exhibit pH as well as solvent sensitivity”, the Brightness ([1]; acidic solution pH 1.9, HCl) was 2314 and the Stokes shift ([1]; acidic solution pH 1.9, HCl) was 39 nm. For the same compound, the Extinction coefficient ([1]; acidic solution pH 1.9, HCl) was 15134 M⁻¹ cm⁻¹, the λmax abs ([1]; acidic solution pH 1.9, HCl) was 585 nm and the Quantum yield [1, 6] was 15.29%. It also gave a λmax em [1, 6] of 624 nm, an Extinction coefficient [1, 7] of 14454 M⁻¹ cm⁻¹ and a λmax abs [1, 7] of 643 nm. For the same compound, the Brightness ([1]; conjugate base, pH 12.1, NaOH) was 43, the Stokes shift ([1]; conjugate base, pH 12.1, NaOH) was 127 nm and the Quantum yield [1, 8] was 0.30%. The λmax em [1, 8] was 770 nm and the pKa [2] was 7.84 +/− 0.11.
In the case of `COC(=O)c1ccccc1-c1c2ccc(=N)cc-2oc2c1ccc1cccc(N)c12.Cl` [Compound 9, 1-amino-7-(2-(methoxycarbonyl)phenyl)-10H-benzo[c]xanthen-10-iminium chloride], the “pH and solvent sensitivity” value [1] is reported as “not pH dependent, but were modestly solvent sensitive”, the Quantum yield [1, 9] is reported as 0.18% and the λmax em [1, 9] is reported as 760 nm. The Brightness [1, 10] was 25, the Stokes shift [1, 10] was 184 nm and the Extinction coefficient [1, 11] was 13872 M⁻¹ cm⁻¹. For the same compound, the λmax abs [1, 11] was 576 nm.
With `COC(=O)c1ccccc1-c1c2ccc(=[N+](C)C)cc-2oc2c1ccc1cccc(O)c12` [Compound 5, N-(1-hydroxy-7-(2-(methoxycarbonyl)phenyl)-10H-benzo[c]xanthen-10-ylidene)-N-N-dimethyl iminium bicarbonate] the “pH and solvent sensitivity” value [1] was “exhibit pH as well as solvent sensitivity”, the Extinction coefficient ([1]; acidic solution pH 1.9, HCl) was 20399 M⁻¹ cm⁻¹ and the Extinction coefficient [1, 7] was 17252 M⁻¹ cm⁻¹. For the same compound, the λmax abs [1, 7] was 632 nm, the Brightness ([1]; conjugate base, pH 12.1, NaOH) was 29 and the Stokes shift ([1]; conjugate base, pH 12.1, NaOH) was 148 nm. It also gave a Quantum yield [1, 8] of 0.17% and a λmax em [1, 8] of 780 nm.
With `COC(=O)c1ccccc1-c1c2ccc(=O)cc-2oc2c1ccc1cccc(N)c12` [Compound 7, methyl 2-(1-amino-10-oxo-10H-benzo[c]xanthen-7-yl)benzoate] the “pH and solvent sensitivity” value [1] was “not affected by either solvent changes or by solution pH values above 2”, the Extinction coefficient ([1]; basic solution pH 12.1, NaOH, 15 μM) was 5664 M⁻¹ cm⁻¹ and 8300 M⁻¹ cm⁻¹ and the Extinction coefficient [1, 12] was 3996 M⁻¹ cm⁻¹. It also gave a λmax abs [1, 12] of 598 nm, a Stokes shift ([1]; conjugate acid, pH 1.9, HCl) of 172 nm and a λmax em ([1]; conjugate acid, pH 1.9, HCl) of 770 nm.
For `COC(=O)c1ccccc1-c1c2ccc(=N)cc-2oc2c1ccc1cccc(OC)c12.O=C(O)O` [Compound 4, 1-methoxy-7-(2-(methoxycarbonyl)phenyl)-10H-benzo[c]xanthen-10-iminium bicarbonate], the “pH and solvent sensitivity” value [1] was “insensitive to variations in pH or solvent” and the Extinction coefficient [1, 5] was 21742 M⁻¹ cm⁻¹.
